Earlier results in US12133918B2, “Partially pre-gelatinized cassava starch as pharmaceutical excipient” (Griffin Gamma, LLC, priority 2021, dated 2024).

Conditions: literature and experimental data

Compound	permeability (BCS)	solubility (BCS)	BCS class
COc1ccccc1OCC(O)CO (centres unmarked) [Guaifenesin, 3-(2-methoxyphenoxy)-1,2-propanediol]	highly permeable	highly soluble	
CC(=O)Oc1ccccc1C(=O)O [Acetylsalicylic acid, acetylsalicylic acid]	highly permeable	highly soluble	Class I
